Reference: patent US7199113B2, “Pharmaceutically active compounds and methods of use thereof” (priority 1998, dated 2007)

What was measured:
[1] = molecular target: T1, TF (243 form lipidated or 219 form unlipidated) (Homo sapiens, UniProt P13726); test: Isothermal calorimetry analysis of binding to TF
T1 construct: made in house; host or cells: E. coli (stated for the 243-aa form)

TF/VIIa complex = molecular target: T2, TF/VIIa complex (Homo sapiens, UniProt P13726); test: TF/VIIa-dependent FIX activation assay; assay type: biochemical; settings: statement on FIG. 3
T2 construct: Truncated recombinant human tissue factor (e.g. composed of 243 amino acids) is expressed in E. coli; host or cells: E. coli (TF)
T2 sequence (P13726 33-275 limits assumed): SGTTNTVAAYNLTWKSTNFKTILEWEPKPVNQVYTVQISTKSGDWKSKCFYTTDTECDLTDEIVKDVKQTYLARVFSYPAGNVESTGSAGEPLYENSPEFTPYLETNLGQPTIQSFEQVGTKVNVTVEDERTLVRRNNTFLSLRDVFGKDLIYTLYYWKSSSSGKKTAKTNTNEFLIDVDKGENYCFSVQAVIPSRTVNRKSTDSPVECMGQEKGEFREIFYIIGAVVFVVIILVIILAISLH
T2 sequence (P08709 61-212 partner limits assumed): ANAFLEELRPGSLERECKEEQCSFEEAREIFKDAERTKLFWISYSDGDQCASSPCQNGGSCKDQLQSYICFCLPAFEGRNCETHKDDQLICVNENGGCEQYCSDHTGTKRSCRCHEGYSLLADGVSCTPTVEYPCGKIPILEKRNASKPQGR
T2 sequence (P08709 213-466 partner limits assumed): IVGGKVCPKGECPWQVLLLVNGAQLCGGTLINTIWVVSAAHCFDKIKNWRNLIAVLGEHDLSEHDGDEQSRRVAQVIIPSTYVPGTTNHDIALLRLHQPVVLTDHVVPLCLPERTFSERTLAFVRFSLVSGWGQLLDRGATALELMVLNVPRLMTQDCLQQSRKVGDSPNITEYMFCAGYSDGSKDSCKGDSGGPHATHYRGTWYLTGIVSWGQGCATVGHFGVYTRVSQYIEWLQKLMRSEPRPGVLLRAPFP
Protocol: In a more particular embodiment, the standard assay preferably includes the following steps: • 1) admixing in a suitable assay solution about 0.7 nM TF/VIIa complex with 300 nM factor IX and 1000 nM factor X, and from between about 0.5 μl to about 10 μl of at least one compound to be tested (optionally dissolved in an appropriate vehicle such as water or dimethylsulfoxide (DMSO)) and incubating the solution at 37° C. from between about a few minutes up to about an hour under conditions suitable for forming FIXa and FXa; • 2) contacting the solution with a suitable chelating agent such as EDTA to stop FIX activation; • 3) contacting the solution with a chromogenic substrate specific for the FXa (e.g., Spectrozyme FXa) and incubating same at 37° C.; and • 4) detecting chromophore in the solution as being indicative of the factor IX activation.
TF/VIIa is not only able to activate FX, but is also able to convert FIX to FIXa. To examine whether the two antagonists 1 and 2 were able to block FIX activation catalyzed by TF/VIIa. FIX activation experiment was conducted. To each well of a 96-well plate, 5 μl of diluted DMSO or compound was added, followed by 45 μl of TF/VIIa (0.67 nM). After mixing and incubating for 15 minutes at 37° C., 10 μl of FIX (300 nM) was added and incubated for 10 minutes at 37° C. 10 μl of EDTA ([…] in 144 mM HEPES, […], 0.576% BSA, pH adjusted to 7.5) was added, followed by addition of 10 μl of FX (1000 nM), 10 μl of polylysine, and 10 μl of Spectrozyme FXa (6 mM). After 3 hour incubation at 37° C., absorbance at 405 nm was measured following addition of 20 μl of 50% acetic acid. The percent inhibition of TF/VIIa-dependent FIX activation was calculated from OD405 nm values in the absence and presence of a compound.

[2] = molecular target: T3, human recombinant TF/VIIa complex (lipidated) (Homo sapiens, UniProt P13726); test: TF/VIIa-dependent FX activation assay; assay type: biochemical; settings: statement on FIG. 3
T3 construct: Truncated recombinant human tissue factor (e.g. composed of 243 amino acids) is expressed in E. coli; host or cells: E. coli (TF)
T3 sequence (P13726 33-275 limits assumed): as the sequence (P13726 33-275 limits assumed) above
T3 sequence (P08709 61-212 partner limits assumed): as the sequence (P08709 61-212 partner limits assumed) above
T3 sequence (P08709 213-466 partner limits assumed): as the sequence (P08709 213-466 partner limits assumed) above
Protocol: A more particular example of the primary screening assay discussed previously is as follows. The assay is standard for measuring TF/VIIa-dependent factor X activation. […] In a more preferred embodiment, the primary screening preferably includes the following steps. • 1) admixing in a suitable assay solution about 0.1 nM of human recombinant TF/VIIa complex (lipidated), about 180 nM human FX, and between from about 0.5 μl to about 10 μl of at least one compound to be tested (optionally dissolved in an appropriate vehicle such as water or dimethylsulfoxide (DMSO)) and incubating the reaction at 37° C. for a few minutes up to about an hour or more, • 2) contacting the solution with a suitable chelating agent such as ethylenediaminietetra acetic acid (EDTA) to reduce or stop factor X activation, • 3) contacting the solution with a detectable amount of a chromogenic substrate specific for FXa (e.g., Spectrozyme FXa or S-2765) and incubating same at 37° C.; and • 4) detecting chromophore produced in the solution as being indicative of the factor X activation.
The primary screening for compounds that inhibit tissue factor/factor VIIa (TF/VIIa) is based on TF/VIIa-dependent FX activation assay (See flow chart in FIG. 1 of the drawings). In this assay, the ability of TF/VIIa complex to activate FX is determined in two discontinuous stages. […] In the second stage (FXa activity assay), EDTA is added at indicated times to the FX activation mixture to chelate calcium, thus leading to the termination of FX→FXa conversion. Calcium is required for TF/VIIa activity. The activity of FXa is then measured by FXa-specific chromogenic substrates such as S-2222, S-2765, or Spectrozyme FXa. In the primary screening, compounds from a previously prepared chemical library are first tested at relatively high concentrations (˜0.833 mM) in TF/VIIa-dependent FX activation assay to identify hits of potential TF pathway antagonists (see FIG. 1). However, it is evident that the inhibition of TF/VIIa-dependent FX activation by a compound in this enzyme-coupled assay can be attributed to effects of the compound on TF/VIIa and/or FXa activities. Thus, secondary screening tests are designed to determine how inhibition takes place and the inhibition mechanism. In secondary screening experiments, effects of those compounds identified from primary screening are tested on catalytic activities of factor VIIa (FVIIa), factor IXa (FIXa), factor Xa (FXa), thrombin, Russell's viper venom (RVV), and trypsin.
Primary screening was done in duplicate in 96-well plates using the TF/VIIa-dependent FX activation assay. All compounds to be screened were dissolved in dimethyl sulfoxide (DMSO), other reagents were prepared or diluted in 25 mM HEPES-NaOH, 5 mM CaCl2, 150 mM NaCl, 0.1% BSA, pH 7.5. For assays where TF was used, purified human recombinant TF (100 nM) was first lipidated with phosphatidylcholine (0.07 mg/ml) and phosphatidylserine (0.03 mg/ml) in 50 mM Tris-HCl, pH 7.5, 0.1% bovine serum albumin (BSA) for 30 minutes at 37° C. A stock solution of TF/VIIa complex was then prepared by combining equal volumes of 100 nM lipidated TF and 100 nM FVIIa The complex was incubated at 37° C. for 30 minutes and then was aliquoted and stored at −70° C. for future uses.
For screening assays, 5 μl of each compound (about 10 mM in DMSO) or DMSO were placed in each well of a 96-well plate, followed by adding 45 μl of TF/VIIa complex (0.1 nM). The components in each well were mixed either with pipette tips or by shaking the plate on a Lab-Line titer plate shaker for 30 seconds. After 15 minutes incubation of the plate at a 37° C., 10 μl of human FX (180 nM) was added to each well and mixed as above. The plate was then incubated at 37° C. for 3 to 15 minutes, followed by addition of 10 μl of EDTA (400 mM in 144 mM HEPES, 864 mM NaCl, 0.576% BSA, pH adjusted to 7.5) to each well to terminate FX activation. […]

T1 sequence (P13726 33-251): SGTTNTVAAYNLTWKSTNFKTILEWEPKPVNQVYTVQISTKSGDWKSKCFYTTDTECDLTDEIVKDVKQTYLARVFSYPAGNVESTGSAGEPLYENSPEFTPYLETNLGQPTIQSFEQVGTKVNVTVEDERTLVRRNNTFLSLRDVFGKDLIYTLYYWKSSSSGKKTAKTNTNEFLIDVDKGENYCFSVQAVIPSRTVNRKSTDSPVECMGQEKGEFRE

Compound	binding to TF [1]	blocking activity in standard assay for TF/VIIa-dependent factor IX activation (TF/VIIa complex)	blocking activity in standard assay for TF/VIIa-dependent factor X activation [2]
1-(bisphosponate)-2-amino(3-hydroxyphenyl)ethyl [Compound 1]	directly observed	–	–
Nc1ccc(NCC(P(=O)(O)O)P(=O)(O)O)cc1 [Compound 3]	–	good blocking activity	good blocking activity

The next lines start with the values.

binding to TF [1]	blocking activity in standard assay for TF/VIIa-dependent factor IX activation (TF/VIIa complex)	blocking activity in standard assay for TF/VIIa-dependent factor X activation [2]	Compound
–	good blocking activity	good blocking activity	Cc1ccc(NCC(P(=O)(O)O)P(=O)(O)O)cc1 [Compound 4]
–	good blocking activity	good blocking activity	O=P(O)(O)C(COc1ccccc1)P(=O)(O)O [Compound 6]
–	good blocking activity	good blocking activity	NCCCC(O)(P(=O)(O)O)P(=O)(O)O [Fosamax, reference compound]
